Values of other authors as cited in US12478612B2 (CinDome Pharma, Inc., priority 2017, dated 2025).
Where two headings read alike, the source gives them in different places.

Columns and labels:
[1] = weak base

| pKa [1] | Compound | Human plasma protein binding (Human plasma protein; 10 ng/ml tritiated domperidone) | Human plasma protein binding (Human plasma protein; 100 ng/ml tritiated domperidone) |
| --- | --- | --- | --- |
|  | 5-chloro-1-(1-[3-(2-oxo-2,3-dihydro-1H-benzo[d]imidazol-1-yl)propyl]piperidin-4-yl)-1H-benzo[d]imidazol-2(3H)-one [Domperidone] | 91.7% | 93.0% |
| 7.89 | O=c1[nH]c2ccccc2n1CCCN1CCC(n2c(=O)[nH]c3cc(Cl)ccc32)CC1 [Domperidone, 5-chloro-1-(1-[3-(2-oxo-2,3-dihydro-1H-benzo[d]imidazol-1-yl)propyl]piperidin-4-yl)-1H-benzo[d]imidazol-2(3H)-one] |  |  |
